Reference: patent publication US12398107B2, “Fungicidal nitroanilino substituted pyrazoles” (FMC Corporation, priority 2018, dated 2025)

Tests used:
Type in all cases: in vivo
[1] = tested on: Blumeria graminis f. sp. tritici; assay: Test C: wheat powdery mildew, preventive spray on wheat seedlings; details: 50 ppm, rated after 8 days, 100 = 100% disease control, 0 = no control; for pest or weed control at 50 ppm: Blumeria graminis, 192 h, read-out: Test C disease control rating (wheat powdery mildew)
Summary of the method: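 Wheat seedlings got a run-off spray of test suspension (ppm in acetone/water 50/50, 250 ppm PEG400, acetone 3% of volume), then spore-dust inoculation with wheat powdery mildew one day later. After 8 days' growth-chamber incubation at 20° C, disease control scored visually on a 0–100 scale versus untreated controls.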

[2] = tested on: Puccinia recondita f. sp. tritici; assay: Test B: wheat leaf rust, preventive spray on wheat seedlings; details: 50 ppm, 100 = 100% disease control, 0 = no control relative to controls; for pest or weed control at 50 ppm: read-out: Test B disease control rating (wheat leaf rust)
Summary of the method: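 Wheat seedlings got a run-off spray (ppm, acetone/water 50/50, 250 ppm PEG400) and one day later a spore inoculum. After 24 h at 20° C. in saturated air and 7 days at 20° C., disease was scored as % control relative to controls (100 = full control).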

[3] = tested on: Septoria tritici; assay: Test A: wheat leaf blotch, preventive spray on wheat seedlings; details: 50 ppm, 100 = 100% disease control, 0 = no control relative to controls; for pest or weed control at 50 ppm: Zymoseptoria tritici, read-out: Test A disease control rating (wheat leaf blotch)
Summary of the method: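 Preventive test: seedlings sprayed to run-off one day before Septoria tritici spore inoculation, with ppm doses in acetone/water containing 250 ppm PEG400. After 48 h at 24 °C in saturated air and 17 days at 20 °C, plants were scored 0–100 for disease control versus untreated controls.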

[4] = tested on: Phakopsora pachyrhizi; assay: Test D: Asian soybean rust, preventive spray on soybean seedlings; details: 50 ppm, 100 = 100% disease control, 0 = no control; for pest or weed control at 50 ppm: Phakopsora pachyrhizi, read-out: Test D disease control rating (Asian soybean rust)
Summary of the method: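 Soybean seedlings sprayed to run-off with compound suspension (ppm, in 50/50 acetone/water with 250 ppm PEG400), inoculated next day with P. pachyrhizi spores, held 24 h saturated at 22°C then 8 days at 22°C. Visual rating 0-100% disease control relative to controls.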

[5] = tested on: Alternaria solani; assay: Test F: tomato early blight, preventive spray on tomato seedlings; details: 50 ppm, 100 = 100% disease control, 0 = no control; for pest or weed control at 50 ppm: Alternaria solani, read-out: Test F disease control rating (tomato early blight)
Summary of the method: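 Preventive test: one day after seedlings were sprayed to run-off with ppm-level suspensions (acetone/water 50/50, 250 ppm PEG400), A. solani spore inoculation followed. Incubation was 48 h at 27° C in saturated air plus 3 days at 20° C; disease control was scored visually versus controls (100 = full control).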

[6] = tested on: Botrytis cinerea; assay: Test E: tomato Botrytis, preventive spray on tomato seedlings; details: 50 ppm, 100 = 100% disease control, 0 = no control; for pest or weed control at 50 ppm: Botrytis cinerea, read-out: Test E disease control rating (tomato Botrytis)
Summary of the method: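 Preventive test: spore inoculation one day after run-off spraying of compound suspension (3% acetone, acetone/water 50/50, 250 ppm PEG400). Incubation 20 °C saturated humidity for 48 h, followed by 3 days at 24 °C growth chamber; disease control scored visually, 100 = full control.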

Compound	Test C disease control rating (wheat powdery mildew) [1] [%]	Test B disease control rating (wheat leaf rust) [2] [%]	Test A disease control rating (wheat leaf blotch) [3] [%]	Test D disease control rating (Asian soybean rust) [4] [%]	Test F disease control rating (tomato early blight) [5] [%]	Test E disease control rating (tomato Botrytis) [6] [%]	pest or weed control at 50 ppm [1] [%]	pest or weed control at 50 ppm [2] [%]	pest or weed control at 50 ppm [3] [%]	pest or weed control at 50 ppm [4] [%]	pest or weed control at 50 ppm [5] [%]	pest or weed control at 50 ppm [6] [%]
CCc1nn(C)c(Nc2c(F)cccc2[N+](=O)[O-])c1-c1c(F)cc(Cl)cc1F [Compound 170]	99	99	100	0	99	100	–	–	–	–	–	–
Cc1nn(C)c(Nc2c(Br)cccc2[N+](=O)[O-])c1-c1ccc(F)cc1Cl [Compound 110]	56	98	100	73	0	99	–	–	–	–	–	–
COc1ccc(Nc2c(-c3c(F)cc(F)cc3F)c(C)nn2C)c([N+](=O)[O-])c1 [Compound 159]	100	100	100	13	99	99	–	–	–	–	–	–
Cc1nn(C)c(Nc2ccc(OCC(F)F)cc2[N+](=O)[O-])c1-c1ccc(F)cc1Cl [Compound 36]	56	89	100	25	0	100	–	–	–	–	–	–
Cc1nn(C)c(Nc2c(F)cc(Cl)cc2[N+](=O)[O-])c1-c1ccc(F)cc1Cl [Compound 121, N-(4-chloro-2-fluoro-6-nitrophenyl)-4-(2-chloro-4-fluorophenyl)-1,3-dimethyl-1H-pyrazol-5-amine]	–	–	–	–	–	–	100	100	100	99	100	100
Cc1nn(C)c(Nc2c(Cl)cc(Cl)cc2[N+](=O)[O-])c1-c1ccc(F)cc1Cl [Compound 59]	99	100	100	96	92	99	–	–	–	–	–	–
Cn1nc(C#N)c(-c2ccc(F)cc2Cl)c1Nc1c(F)cccc1[N+](=O)[O-] [Compound 122]	94	100	100	0	99	100	–	–	–	–	–	–
COc1ccc(Nc2c(-c3c(F)cc(F)cc3Br)c(C)nn2C)c([N+](=O)[O-])c1 [Compound 164]	98	100	100	0	99	100	–	–	–	–	–	–
Cc1nn(C)c(Nc2ccc(F)cc2[N+](=O)[O-])c1-c1c(F)cccc1Cl [Compound 44]	98	99	100	0	46	95	–	–	–	–	–	–
Cc1nn(C)c(Nc2c(F)cccc2[N+](=O)[O-])c1-c1ccc(Cl)cc1Cl [Compound 69]	97	100	100	77	99	100	–	–	–	–	–	–
Cc1nn(C)c(Nc2c(F)cc(F)cc2[N+](=O)[O-])c1-c1ccc(Cl)cc1F [Compound 13]	97	99	100	19	89	68	–	–	–	–	–	–
Cc1nn(C)c(Nc2c(Cl)cc(Cl)cc2[N+](=O)[O-])c1-c1ccc(C#N)cc1Cl [Compound 116]	56	99	99	0	82	63	–	–	–	–	–	–
Cc1nn(C)c(Nc2c(Cl)cc(F)cc2[N+](=O)[O-])c1-c1ccc(Cl)cc1F [Compound 176]	0	97	100	0	0	9	–	–	–	–	–	–
Cc1nn(C)c(Nc2c(F)cc(Br)cc2[N+](=O)[O-])c1-c1ccc(F)cc1F [Compound 56]	100	100	100	65	99	99	–	–	–	–	–	–
Cc1ccc(Nc2c(-c3c(F)cccc3F)c(C)nn2C)c([N+](=O)[O-])c1 [Compound 105]	86	74	99	0	0	73	–	–	–	–	–	–
CCc1nn(C)c(Nc2ccc(OC)cc2[N+](=O)[O-])c1-c1ccc(F)cc1F [Compound 45]	95	86	100	0	33	99	–	–	–	–	–	–
CCc1nn(C)c(Nc2ccc(C)cc2[N+](=O)[O-])c1-c1ccc(F)cc1Cl [Compound 174]	92	95	100	0	39	99	–	–	–	–	–	–
Cc1nn(C)c(Nc2c(Cl)cc(F)cc2[N+](=O)[O-])c1-c1ccc(F)cc1F [Compound 67]	89	100	100	69	33	98	–	–	–	–	–	–
Cc1nn(C)c(Nc2c(F)cc(Cl)cc2[N+](=O)[O-])c1-c1c(F)cccc1F [Compound 98]	93	97	100	0	98	99	–	–	–	–	–	–
Cc1cc(F)c(Nc2c(-c3ccc(C#N)cc3Cl)c(C)nn2C)c([N+](=O)[O-])c1 [Compound 127, 3-chloro-4-[5-[(2-fluoro-4-methyl-6-nitrophenyl)amino]-1,3-dimethyl-1H-pyrazol-4-yl]benzonitrile]	–	–	–	–	–	–	92	99	100	96	100	100
